Here are results for two molecules from patent publication US20050192341A1, “Non-psychotropic cannabinoids for prevention of cognitive impairment” (priority 2002, published 2005).

In data set [1] the test system is individuals suffering from severe traumatic brain injury. As to conditions: severe traumatic brain injury patients; not significant statistically; cited from earlier work.
For data set [2], the system named is Sprague-Dawley male rats. The data set is described as follows: Four vessel occlusion (4 VO) in rats, neurological score. Type of data set: in vivo, rat. From the text:
This model was used to test the ability of dexanabinol or related compounds to act as neuroprotectant when administered prior to surgery. The blood supply to the rat brain arrives via the two vertebral and two common carotid arteries. Transient occlusion of all four vessels results in global ischemia, as would occur during cardiac arrest in humans. Global ischemia results in neurological deficits, including short-term memory deficits, and a selective loss of neurons, including pyramidal cells, in the CA1 field of the hippocampus, similarly to the situation observed in MCI. The ability of compounds to reduce the neurological deficits and increase neuronal survival in this model is considered indicative of their potential in preventing brain damage related to cardiac arrest, and is also predictive for ischemic damages and MCI caused by surgery, for instance cardiac surgery performed or not under cardiopulmonary bypass. […] Transient ischemia causes irreversible injury to a few, specific populations of highly vulnerable neurons.
Sprague-Dawley male rats (180-400 g body weight, Anilab, Israel) were anesthetized using 4% halothane for induction and 1% halothane for maintenance, in a mixture of 70% N2O and 30% O2. Animals were submitted to four-vessel occlusion according to the procedure of Pulsinelli et al. (Pulsinelli W. A. et al., Stroke 10: 267, 1979) in a two-stage operation. On the first day the vertebral arteries were occluded. A midline skin incision was performed above the spinal cord behind the skull occipital bone. Muscles were separated and cut until the C1 vertebra was isolated. The alar foramina were located and the vertebral arteries were coagulated via the alar foramina. Muscles and skin were closed in two layers. On the same day, the common carotid arteries (CCA) were isolated through a central neck midline incision. A loose suture material was positioned around them and the skin was closed.
On the second day, the animals were lightly anesthetized using ether. The skin was opened and CCA were closed for 20 minutes with arterial clips. Animals were deprived of food, with free access to water, overnight between the two stages of the study. Loss of righting reflex was the principal criterion for assuring severe forebrain ischemia in the 4 VO model in the rat. Therefore, animals not showing this sign were not included in the study. […]
Animals were monitored for their general clinical appearance at predetermined time points: before vertebral occlusion; before and 5 hours after CCA occlusion; then 1, 2, and 3 days after CCA occlusion. Body weight was recorded at baseline and at each follow-up session.
The total neurological score was calculated by adding the results of all tests for each animal and the maximal score obtainable for normal animals is 16 points. […]

Data set [3] deals with Sprague-Dawley male rats. Put plainly: Cognitive impairment assessment following 4 VO, Morris water maze. Type of data set: in vivo, rat. How it is done:
One week after CCA occlusion, the cognitive impairment was measured using a Morris water maze apparatus. The ability of the animals to perform in this test is predictive of their learning and memory capacity. A circular metal pool 150 cm in diameter and 74 cm in height was filled with water at 25° C. to a height of 54 cm. A platform 10 cm in diameter was placed 2 cm below the water surface. The pool was divided (virtually) into 4 equal surface areas identified by arbitrary north, south, east and west coordinates. The platform was located in the middle of the southwest quadrant 25 cm from the pool rim. The swim path was monitored by video camera connected to a computer (View Point, France). […] Animals that found the hidden platform were allowed to stay on it for 30 seconds.
Animals were tested in nine consecutive trials one week following the 4 VO and the learning capacity was measured as the amount of time spent by the animal swimming before finding the hidden platform. Each trial was performed for 1 minute and there were 5 minute intervals between the trials. One day later, eight days post-occlusion, the animals were tested again in order to assess their memory.
Three groups of at least 8 animals each were tested in this study: 1) sham operated animals; 2) operated animals treated 15 minutes before CCA occlusion with HPCD vehicle; 3) operated animals treated 15 minutes before CCA occlusion with 8 mg/kg dexanabinol, prepared and injected intravenously as previously described in example 2.
The average latency time in seconds elapsed until platform localization was calculated for each treatment group as an average of three consecutive trials. […] During the first six trials dexanabinol treated animals learned similarly to vehicle treated animals.

Another data set concerns Sprague Dawley rats. The data set is described as follows: Neuronal vacuolization and necrosis histopathology after single high dose injection in rats. It is filed as in vivo, rat. As to conditions: for Average number of vacuoles / Average number of necrotic foci: males and females, all sections; for Average number of vacuoles / Number of animals with necrotic foci: dexanabinol 50 mg/kg i.v.; for Average number of vacuoles / Average number of necrotic foci / Number of animals with necrotic foci / Clinical signs post-dose: MK-801 5 mg/kg s.c.; for Average number of necrotic foci: dexanabinol 50 mg/kg i.v. in CREMOPHOR EL:ethanol; for Number of animals with necrotic foci: cingulated gyrus, males and females combined; for Clinical signs post-dose: study day 1, dexanabinol 50 mg/kg i.v. (undistinguishable from vehicle, transient). From the text:
The purpose of this study was to characterize the potential of dexanabinol to protect against neuronal vacuolization and cell death in the retrosplenial and cingulated neocortex regions of the brain in Sprague Dawley rats following intravenous administration of a single high dose of […]. It has previously been reported that neuronal vacuolization and cell death are among the commonly detected adverse side effects of NMDA antagonists in rodents (Olney J. W. et al., Science 244: 1360-2, 1989).
Sprague Dawley rats (140-250 g body weight, Charles River Laboratory, Mich., USA) were maintained under controlled environmental conditions, with 12:12 hour light dark cycle, and had free access to food and water. The animals were acclimated for at least seven days prior to study day 1. Animals were randomly assigned to the following treatment groups: saline (negative control), CREMOPHOR EL®:ethanol (70:30 w/w respectively supplemented with 0.5% w/v dl-α-tocopherol and 0.01% w/v edetic acid; vehicle) and 50 mg/kg dexanabinol. For all groups the volume dosage was 10 ml/kg and the treatments were administered via bolus intravenous injection into the lateral tail vein of animals. CREMOPHOR EL®:ethanol and dexanabinol 50 mg/ml were diluted 1:10 into saline prior to injection. M-801 at a dose of 5 mg/kg administered subcutaneously at a volume dosage of 5 ml/kg was used as positive control, its vehicle being saline.
Each treatment group consisted of six males and six females, which were at first analyzed separately to assess gender influence. Clinical observations, including observations for mortality or moribundity, were recorded pretest, once daily, and when a change was noted during the twice-daily observations. Body weights were recorded pretest and predose on study day 1. Six animals per sex per group per time point were submitted for necropsy at approximately 4 and 12 hours post-dose, and 1, 3, and 7 days post-dose. At the predetermined time points, the animals were humanely euthanized via intraperitoneal injection of 100 mg/kg sodium pentobarbital to achieve deep anesthesia.
Whole body perfusion were performed using heparinized saline for approximately one minute followed by 10% neutral buffered fornalin for approximately eight to ten minutes on all animals. The calvarium was removed, leaving the brain in the cranial cavity. The heads (with the brain in the cranial cavity) or brains (removed only after 24 hours left in situ in 10% neutral buffered formalin) were placed into 10% neutral buffered formalin until further process toward pathological analysis.
The brains from all animals at all time points were processed and evaluated as follows. The brains from the 4 and 12 hours time point animals were removed and sectioned using a rat brain trimming matrix to yield two coronal sections including the posterior cingulated gyrus (retrosplenial area of the brain). All sections were embedded in glycol methacrylate, sectioned at approximately 2 microns, and stained with hematoxylin and eosin. Brains from the 1, 3 and 7 days post-dose animals were removed and sectioned to yield three coronal sections spanning the brain from the posterior cingulate gyrus and extending rostral to the level of the basal nuclei. These sections were embedded in paraffin and sectioned twice at approximately 5-8 microns, with one section stained with hematoxylin and eosin and the other with Fluoro-Jade B, which selectively stains dying neuronal cells. The slides were microscopically evaluated in a blinded fashion. No statistical analyses were performed.

A value given as a limit tells only on which side of the number the result lay.

As to `CCCCCCC(C)(C)c1cc(O)c2c(c1)OC(C)(C)[C@H]1CC=C(CO)C[C@H]21` [Dexanabinol, 1,1-dimethyl-(3S,4S)-7-hydroxy-Δ^6-tetrahydrocannabinol], the “Neurological outcome as assessed by the Galveston Orientation and Amnesia Test” value in data set [1] is on record as “trend existed for the dexanabinol treated patients to achieve better neurological outcome”. Moreover, the “Time to full recovery of neurological score to sham animals levels” value in the data set on Sprague-Dawley male rats [2] (8 mg/kg i.v. 15 minutes before CCA occlusion) is recorded as not above 72 hours. The “Decrease in neurological score” value in the data set on Sprague-Dawley male rats [2] (5 hours after occlusion, 8 mg/kg i.v. 15 minutes before CCA occlusion, maximal score 16 points) was “about 4 points”. Besides, in the data set on Sprague-Dawley male rats [2] (48 hours post-occlusion, 8 mg/kg i.v.), the “Neurological score compared with sham operated group” value is reported as “not statistically different from the sham operated group”. The “Neurological outcome compared with vehicle treated or operated untreated animals” value in the data set on Sprague-Dawley male rats [2] (from 24 hours post-occlusion on, 8 mg/kg i.v.) is “significantly better neurological outcome”. The “Average time to localize the hidden platform” value in the data set on Sprague-Dawley male rats [3] (average over the ten trials measuring learning and memory, 8 mg/kg i.v., sham 34.8 seconds) is 30.8 s. The “Time less than sham operated animals to localize the hidden platform” value in the data set on Sprague-Dawley male rats [3] (average over the ten trials, 8 mg/kg i.v., difference not statistically significant) stood at 4 s. In addition, the “Reduction in average time for platform localization over vehicle treated animals (memory)” value in the data set with Sprague-Dawley male rats [3] (day 8 post-occlusion, 8 mg/kg i.v. 15 minutes before CCA occlusion) is approximately 22%. The “Reduction in average time for platform localization over vehicle control group (learning)” value in the data set with Sprague-Dawley male rats [3] (last three of nine trials, one week after 4 VO, 8 mg/kg i.v. 15 minutes before CCA occlusion) is listed as “more than 42%”. Moreover, the “Average number of vacuoles” value in the data set with Sprague Dawley rats (4 hrs post-dosing) and in the data set on Sprague Dawley rats (12 hrs post-dosing) was “None” throughout. In addition, the “Average number of necrotic foci” value with Sprague Dawley rats (Day 1 post-dosing) was 0.5; in the data set on Sprague Dawley rats (Day 3 post-dosing), 0.6; with Sprague Dawley rats (Day 7 post-dosing), more than 3. Further, the “Number of animals with necrotic foci” value in the data set on Sprague Dawley rats (Day 1 post-dosing), with Sprague Dawley rats (Day 3 post-dosing) and with Sprague Dawley rats (Day 7 post-dosing) was 0/12 each time. For the same molecule, the “Highest tolerated dose in rats” value with Sprague Dawley rats (single dose, to the first approximation) is on record as approximately 50 mg/kg. For the same molecule, the Clinical signs post-dose entry with Sprague Dawley rats is “prostration and decreased activity”.
Take `C[C@]12N[C@H](Cc3ccccc31)c1ccccc12` [MK-801, reference compound]: the Clinical signs post-dose result with Sprague Dawley rats was “ataxia, tremors and prostration”.
